Source: publication PMC7436000, “The Spectrum of Design Solutions for Improving the Activity-Selectivity Product of Peptide Antibiotics against Multidrug-Resistant Bacteria and Prostate Cancer PC-3 Cells” (Molecules, 2020)
In brackets after ≈: the same amount, converted by molar mass. Where two headings read alike, the source gives them in different places. Peptide text beside a SMILES is read from it.

Experiments:
[1] = tested on: E. coli clin. isolate; format: cell-based, Escherichia coli; conditions: clin. isolate
Excerpt: (§1) The American Type Culture Collection (ATCC, Rockville, MD, USA) strains and Escherichia coli MG1655 were used as standard bacterial strains. Gram-negative ATCC strains consisted of Escherichia coli (ATCC 25922), Pseudomonas aeruginosa (ATCC 27853), Acinetobacter baumannii (ATCC 19606), and Klebsiella pneumoniae (ATCC 13883). The only Gram-positive standard strain chosen for testing was Staphylococcus aureus (ATCC 29213). Clinical isolates with confirmed multidrug-resistance phenotype were obtained from different wards of the University Hospital Center, Split, Croatia. We described their origin, antibiograms, and resistance phenotype previously. In the same paper, we described the procedure for antimicrobial susceptibility testing on planktonic cells, using the microdilution method in 96-well microtiter plates.
(§2) Briefly, cells were grown on agar plates and a single colony was sampled to generate a liquid culture (LC) grown overnight at 37 °C. The culture was sampled, resuspended in fresh medium, and allowed to grow at 37 °C, until reaching the mid-exponential phase. Lysogeny broth (LB) was used in the case of the E. coli MG1655 cells. Mueller Hinton (MH) medium was used for all other bacterial strains. Serial 2-fold dilutions of the peptide (64 μM to 0.0625 μM) were prepared from peptide stock solution in PBS, and added to a final load of 5 × 10^5 CFU/mL in 100 μL total volume of medium per well in a 96-well plate (Brand 781660). Bacterial cultures were incubated with peptides for 18 h to 24 h at 37 °C. The minimum inhibitory concentration (MIC) was defined as the lowest concentration of the peptide, at which no visible bacterial growth was observed. The MIC for each of the tested peptides was determined in at least three individual assays under the same laboratory conditions. […] At the end of the incubation period for MIC or MBC, the determination of the OD600 was analyzed.

[2] = tested on: P. aerug. clin. isolate; format: cell-based, Pseudomonas aeruginosa
Excerpt: as §1, §2

[3] = tested on: K. pneum. clin. isolate; format: cell-based, Klebsiella pneumoniae
Excerpt: as §1, §2

[4] = tested on: Acinetobacter baumannii (ATCC 19606); format: cell-based; conditions: ATCC 19606
Excerpt: as §1, §2

[5] = tested on: Escherichia coli (ATCC 25922); format: cell-based; conditions: ATCC 25922
Excerpt: as §1, §2

[6] = tested on: Escherichia coli MG1655; format: cell-based
Excerpt: as §1, §2

[7] = tested on: Klebsiella pneumoniae (ATCC 13883); format: cell-based; conditions: ATCC 13883
Excerpt: as §1, §2

[8] = tested on: Pseudomonas aeruginosa (ATCC 27853); format: cell-based; conditions: ATCC 27853
Excerpt: as §1, §2

[9] = tested on: Staphylococcus aureus (ATCC 29213); format: cell-based
Excerpt: as §1, §2

[10] = tested on: A. baum. clin. isolate; format: cell-based, Acinetobacter baumannii
Excerpt: as §1, §2

[11] = tested on: S. aureus clin. isolate; format: cell-based, Staphylococcus aureus; conditions: clin. isolate
Excerpt: as §1, §2

[12] = tested on: human erythrocytes; experiment: Hemolysis of human erythrocytes; format: cell-based; conditions: for HC10: concentration causing 10% hemolysis, 0.2% Triton = 100%; for HC10 / HC20 / HC50: 0.5% RBC in PBS, 1 h, 37 °C, absorbance 450 nm, triplicate; for HC20: concentration causing 20% hemolysis; for HC50: concentration causing 50% hemolysis
Description: Fresh blood was obtained from a healthy donor. Blood was stored in a tube containing EDTA at 4 °C and used within 24 h. Before use, 1 mL of blood was centrifuged (400× g, 10 min), and the supernatant was discarded. Moreover, 500 μL cold PBS with EDTA (1 mM) was added, mixed and centrifuged. The supernatant was discarded. Furthermore, 500 μL of cold PBS with EDTA (1 mM) was added, from which a dilution of 1% blood was made. Peptides were prepared in PBS at a 2 × concentration in 100 µL. […] The suspension was incubated at 37 °C for 1 h and centrifuged at 10,000× g for 5 min. […] After centrifugation, the supernatant was added to a 96-well microtiter plate (150–180 μL), and the absorbance was measured at 450 nm, using EnSight Multimode Plate Reader (PerkinElmer, Inc.). Each measurement was done in triplicate. […] We opted to also include the extrapolated HC50 in our results, to permit comparisons with older toxicity results. However, the HC20 measurements were used for ranking the peptides according to their selectivity and overall performance (Figure 1 and Figure 2 and Table 2).

[13] = tested on: human primary dermal fibroblasts; format: cell-based
Description: (§3) Prostate cancer cells were donated by the University of Split, School of Medicine. Cells were cultured in RMPI-1640 medium, supplemented with 10% FBS, 1% Penicillin-Streptomycin, and 1% L-Glutamine. Human dermal fibroblasts were purchased from Biopredic (France) and cultured in DMEM medium, supplemented with 10% FBS and 1% Penicillin-Streptomycin. All cell lines were maintained in a humidified incubator with 5% CO2 at 37 °C. Cells were detached using the trypsin-EDTA solution and sub-cultured (7000 cells/well) in a 96-well plate overnight. Peptide stock solutions were prepared in PBS, and cancer cells were treated with 2-fold serial dilutions for 24 h at 37 °C, with 5% CO2. The toxicity of 6 selected peptides was assessed by a standard MTT assay. Treated cells were incubated with MTT working solution (0.5 mg/mL Thiazolyl Blue Tetrazolium Bromide) for 4 h at 37 °C with 5% CO2. Precipitated formazan was dissolved in 200 µL DMSO and absorbance was measured at 595 nm with EnSight Multimode Plate Reader (PerkinElmer, Inc.)

[14] = tested on: PC-3 prostate cancer cell line; format: cell-based, human
Description: as §3

| Structure (SMILES) | MIC (E. coli clin. isolate) [1] [µM] | MIC (P. aerug. clin. isolate) [2] [µM] | MIC (K. pneum. clin. isolate) [3] [µM] | MIC (A. baum. ATCC 19606) [4] [µM] | MIC (E. coli ATCC 25922) [5] [µM] | MIC (E. coli MG1655) ([6]; MG1655) [µM] | MIC (K. pneum. ATCC 13883) [7] [µM] | MIC (P. aerug. ATCC 27853) [8] [µM] | MIC (S. aureus ATCC 29213) [9] [µM] | MIC (A. baum. clin. isolate) [10] [µM] | MIC (S. aureus clin. isolate) [11] [µM] | HC10 [12] [µM] | HC20 [12] [µM] | HC50 [12] [µM] | IC50 ([13]; 24 h) [µM] | (TI/ IC50C) vs. MP1 ([14]; 24 h) | TI (HC20/IC20C) ([14]; 24 h) | TI (IC50F/IC50C) ([14]; 24 h) | TI/ IC50C ([14]; 24 h) | IC50 ([14]; 24 h) [µM] | further results |
| --- | --- | --- | --- | --- | --- | --- | --- | --- | --- | --- | --- | --- | --- | --- | --- | --- | --- | --- | --- | --- | --- |
| CC[C@H](C)[C@H](NC(=O)[C@H](CCCCN)NC(=O)[C@H](CC(C)C)NC(=O)[C@H](C)NC(=O)[C@H](CCCCN)NC(=O)[C@H](CC(C)C)NC(=O)[C@H](C)NC(=O)[C@@H](NC(=O)[C@H](CCCCN)NC(=O)[C@H](C)NC(=O)[C@@H](NC(=O)[C@@H](N)CCCCN)[C@@H](C)CC)C(C)C)C(=O)N[C@@H](C)C(=O)N[C@@H](CCCCN)C(=O)NCC(=O)N[C@@H](C)C(=O)N[C@@H](CC(C)C)C(=O)N[C@@H](CCCCN)C(=O)N[C@@H](C)C(=O)N[C@@H](CC(C)C)C(N)=O [KIA1] (H-KIAKVALKALKIAKGALKAL-NH2) | 12 (≈ 24.6 µg/mL) | 3 (≈ 6.14 µg/mL) | 12 (≈ 24.6 µg/mL) | 1.5 (≈ 3.07 µg/mL) | 0.75 (≈ 1.54 µg/mL) | 8 (≈ 16.4 µg/mL) | 3 (≈ 6.14 µg/mL) | 6 (≈ 12.3 µg/mL) | 1 (≈ 2.05 µg/mL) | 1.5 (≈ 3.07 µg/mL) | 3 (≈ 6.14 µg/mL) | 3 | 6 | 20 | 15 | 1.6 | 1 | 1 | 0.07 | – | – |
| CC[C@H](C)[C@H](NC(=O)[C@H](CCCCN)NC(=O)[C@H](CC(C)C)NC(=O)[C@H](C)NC(=O)[C@H](CCCCN)NC(=O)[C@H](CC(C)C)NC(=O)[C@H](C)NC(=O)[C@@H](NC(=O)[C@H](CCCCN)NC(=O)[C@H](C)NC(=O)[C@@H](NC(=O)[C@@H](N)CCCCN)[C@@H](C)CC)C(C)C)C(=O)N[C@@H](C)C(=O)N[C@@H](CCCCN)C(=O)N[C@H](C(=O)N[C@@H](C)C(=O)N[C@@H](CC(C)C)C(=O)N[C@@H](CCCCN)C(=O)N[C@@H](C)C(=O)N[C@@H](CC(C)C)C(N)=O)C(C)C [PG2] (H-KIAKVALKALKIAKVALKAL-NH2) | 6 (≈ 12.5 µg/mL) | 6 (≈ 12.5 µg/mL) | 12 (≈ 25.1 µg/mL) | 1.5 (≈ 3.13 µg/mL) | 1.5 (≈ 3.13 µg/mL) | 16 (≈ 33.4 µg/mL) | 3 (≈ 6.27 µg/mL) | 6 (≈ 12.5 µg/mL) | 0.75 (≈ 1.57 µg/mL) | 1.5 to 3 | 1.5 (≈ 3.13 µg/mL) | 3 | 14 | 18 | 10 | 6.8 | 6 | 1.7 | 0.28 | 6 | – |
| CC[C@H](C)[C@H](NC(=O)[C@H](CCCNC(=N)N)NC(=O)[C@H](C)NC(=O)[C@H](Cc1ccc(O)cc1)NC(=O)[C@H](CCCNC(=N)N)NC(=O)[C@H](CCCNC(=N)N)NC(=O)[C@H](Cc1c[nH]c2ccccc12)NC(=O)[C@H](Cc1c[nH]cn1)NC(=O)[C@H](Cc1c[nH]cn1)NC(=O)[C@@H](N)CCCNC(=N)N)C(=O)NCC(=O)N[C@@H](Cc1ccccc1)C(=O)N[C@@H](CCCNC(=N)N)C(=O)N[C@@H](C)C(=O)N[C@H](C(=O)N[C@@H](CCCNC(=N)N)C(=O)N[C@H](C(=O)N[C@H](C(=O)N[C@H](C(=O)NCC(=O)N[C@@H](CCCCN)C(N)=O)[C@@H](C)CC)C(C)C)[C@@H](C)O)C(C)C [T2R1] (H-RHHWRRYARIGFRAVRTVIGK-NH2) | 4 (≈ 10.5 µg/mL) | 8 (≈ 21.1 µg/mL) | 2 to 4 | 2 (≈ 5.27 µg/mL) | 1 (≈ 2.64 µg/mL) | 4 (≈ 10.5 µg/mL) | 2 (≈ 5.27 µg/mL) | 1 (≈ 2.64 µg/mL) | 0.5 (≈ 1.32 µg/mL) | 8 (≈ 21.1 µg/mL) | 4 (≈ 10.5 µg/mL) | 3 | 25 | – | 80 | 30 | 5 | 10 | 1.25 | 8 | PEa(20) = SI/MIC(aureus) ([9]; ATCC 29213, 18 h): 100 µM⁻¹; HC50 * (extrapolated) ([12]; extrapolated, all concentrations tested lysed less than 50% of cells): 7000 * µM |
| CC[C@H](C)[C@H](N)C(=O)N[C@@H](CC(=O)O)C(=O)N[C@@H](Cc1c[nH]c2ccccc12)C(=O)N[C@@H](CCCCN)C(=O)N[C@@H](CCCCN)C(=O)N[C@@H](CC(C)C)C(=O)N[C@@H](CC(C)C)C(=O)N[C@@H](CC(=O)O)C(=O)N[C@@H](C)C(=O)N[C@@H](C)C(=O)N[C@@H](CCCCN)C(=O)N[C@@H](CCC(N)=O)C(=O)N[C@H](C(=O)N[C@@H](CC(C)C)C(N)=O)[C@@H](C)CC [MP1, reference compound] (H-IDWKKLLDAAKQIL-NH2) | – | – | – | – | – | – | – | – | – | – | – | 20 | 37 | 170 | – | – | – | – | – | – | MIC (E. coli MG1655) ([6]; broth microdilution, LB medium, 5 × 10^5 CFU/mL, 18-24 h, 37 °C, at least three assays): >32 µM; IC50 ([13]; MTT assay, 7000 cells/well, 24 h treatment, 37 °C, 5% CO2, absorbance 595 nm, read-out: IC50F (Fibroblasts)): 150 µM; IC50 ([14]; MTT assay, 7000 cells/well, 24 h treatment, 37 °C, 5% CO2, absorbance 595 nm, read-out: IC50C (PC-3)): 60 µM; TI (HC20/IC20C) ([14]; human erythrocytes vs PC-3): 1; TI/ IC50C ([14]; performance, product of TI and anticancer activity (1/IC50C)): 0.04; (TI/ IC50C) vs. MP1 ([14]; relative performance with respect to MP1 control peptide): 1.0; TI (IC50F/IC50C) ([14]; therapeutic index, fibroblasts vs PC-3): 2.5 |
